From US8404677B2, “Kinase inhibitors” (Genosco, priority 2009, dated 2013)

Tests used:
[1] = tested on: HCT-116; assay: cells; format: cell-based; conditions: HCT-116 (Colon Cancer)
[2] = tested on: SF-268; assay: cells; format: cell-based; conditions: SF-268 (CNS Cancer)
[3] = tested on: HCC-2998; assay: cells; format: cell-based; conditions: HCC-2998 (Colon Cancer)
[4] = tested on: SF-539; assay: cells; format: cell-based; conditions: SF-539 (CNS Cancer)
[5] = tested on: HOP-62; assay: cells; format: cell-based; conditions: HOP-62 (NSCLC)
[6] = tested on: SN12C; assay: cells; format: cell-based; conditions: SN12C (Renal Cancer)
[7] = tested on: CAKI-1; assay: cells; format: cell-based; conditions: CAKI-1 (Renal Cancer)
[8] = tested on: SF-295; assay: cells; format: cell-based; conditions: SF-295 (CNS Cancer)
[9] = tested on: T-47D; assay: cells; format: cell-based; conditions: T-47D (Breast Cancer)
[10] = tested on: EKVX; assay: cells; format: cell-based; conditions: EKVX (NSCLC)
[11] = biological target: T1, PAK4 (Homo sapiens, UniProt O96013); assay: In vitro kinase inhibition, Ambit Biosciences panel; format: binding; conditions: lower numbers indicate stronger activities
T1 construct: purchased Ambit Biosciences
T1 sequence (O96013 whole entry): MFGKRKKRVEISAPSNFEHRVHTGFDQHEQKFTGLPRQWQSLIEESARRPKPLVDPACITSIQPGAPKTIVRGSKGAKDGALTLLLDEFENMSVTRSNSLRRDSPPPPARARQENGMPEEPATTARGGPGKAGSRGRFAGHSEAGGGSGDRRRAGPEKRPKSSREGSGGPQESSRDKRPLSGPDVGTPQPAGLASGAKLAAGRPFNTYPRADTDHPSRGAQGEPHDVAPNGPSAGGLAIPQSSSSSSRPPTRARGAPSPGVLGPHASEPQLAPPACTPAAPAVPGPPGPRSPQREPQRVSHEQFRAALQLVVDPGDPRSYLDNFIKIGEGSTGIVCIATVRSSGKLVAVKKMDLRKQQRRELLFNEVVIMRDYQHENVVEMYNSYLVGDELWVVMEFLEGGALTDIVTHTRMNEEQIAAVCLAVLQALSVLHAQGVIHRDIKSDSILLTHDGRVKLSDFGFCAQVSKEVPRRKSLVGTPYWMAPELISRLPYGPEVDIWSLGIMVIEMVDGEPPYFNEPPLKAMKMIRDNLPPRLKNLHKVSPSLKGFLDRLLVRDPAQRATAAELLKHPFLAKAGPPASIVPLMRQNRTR
Description: (§1) Up to 518 different kinases have been identified in humans. They act on small molecules such as lipids, carbohydrates, amino acids, and nucleotides. To determine the scope of inhibitory effects of a representative compound of Formula (I) on known kinases, Compound 6 was tested against 104 commercially available kinases (Ambit Biosciences™) in vitro. 104 kinases included ABL1(E255K)-phosphorylated, ABL1(T315I)-phosphorylated, ABL1-phosphorylated, ACVR1B, ADCK3, AKT1, AKT2, ALK, AURKA, AURKB, AXL, BMPR2, BRAF, BRAF(V600E), BTK, CDK11, CDK2, CDK3, CDK7, CDK9, CHEK1, CSF1R, CSNK1D, CSNK1G2, DCAMKL1, DYRK1B, EGFR, EGFR(L858R), EPHA2, ERBB2, ERBB4, ERK1, FAK, FGFR2, FGFR3, FLT1, FLT3, FLT4, GSK3B, IGF1R, IKK-α, IKK-β, INSR, JAK2(JH1domain-catalytic), JAK3(JH1domain-catalytic), JNK1, JNK2, JNK3, KIT, KIT(D816V), KIT(V559D,T670I), LKB1, LRRK2, LRRK2(G2019S), MAP3K4, MAPKAPK2, MARK3, MEK1, MEK2, MET, MKNK1, MKNK2, MLK1, MTOR, p38-alpha, p38-beta, PAK1, PAK2, PAK4, PCTK1, PDGFRA, PDGFRB, PDPK1, PIK3C2B, PIK3CA, PIK3CG, PIM1, PIM2, PIM3, PKAC-alpha, PLK1, PLK3, PLK4, PRKCE, PYK2, RAFT, RET, RIOK2, ROCK2, RSK2, SNARK, SRC, SRPK3, SYK, TAK1, TGFBR1, TIE2, TRKA, TSSK1B, TYK2(JH1domain-catalytic), ULK2, VEGFR2, YANK3 and ZAP70.
(§2) Inhibition activity of Compound 6 was reported as percent control where lower numbers indicate stronger activities. […] Conventionally, the percent control of less than 35 is deemed to be significant inhibition of kinase activity as the numeric value 35 is frequently used as a threshold.

[12] = biological target: T2, MLK1 (Homo sapiens, UniProt P80192); assay: as above; format: binding; conditions: lower numbers indicate stronger activities
T2 construct: purchased Ambit Biosciences
Description: as §1, §2

[13] = biological target: T3, FAK (Homo sapiens, UniProt Q05397); assay: as above; format: binding; conditions: lower numbers indicate stronger activities
T3 construct: purchased Ambit Biosciences
T3 sequence (Q05397 whole entry): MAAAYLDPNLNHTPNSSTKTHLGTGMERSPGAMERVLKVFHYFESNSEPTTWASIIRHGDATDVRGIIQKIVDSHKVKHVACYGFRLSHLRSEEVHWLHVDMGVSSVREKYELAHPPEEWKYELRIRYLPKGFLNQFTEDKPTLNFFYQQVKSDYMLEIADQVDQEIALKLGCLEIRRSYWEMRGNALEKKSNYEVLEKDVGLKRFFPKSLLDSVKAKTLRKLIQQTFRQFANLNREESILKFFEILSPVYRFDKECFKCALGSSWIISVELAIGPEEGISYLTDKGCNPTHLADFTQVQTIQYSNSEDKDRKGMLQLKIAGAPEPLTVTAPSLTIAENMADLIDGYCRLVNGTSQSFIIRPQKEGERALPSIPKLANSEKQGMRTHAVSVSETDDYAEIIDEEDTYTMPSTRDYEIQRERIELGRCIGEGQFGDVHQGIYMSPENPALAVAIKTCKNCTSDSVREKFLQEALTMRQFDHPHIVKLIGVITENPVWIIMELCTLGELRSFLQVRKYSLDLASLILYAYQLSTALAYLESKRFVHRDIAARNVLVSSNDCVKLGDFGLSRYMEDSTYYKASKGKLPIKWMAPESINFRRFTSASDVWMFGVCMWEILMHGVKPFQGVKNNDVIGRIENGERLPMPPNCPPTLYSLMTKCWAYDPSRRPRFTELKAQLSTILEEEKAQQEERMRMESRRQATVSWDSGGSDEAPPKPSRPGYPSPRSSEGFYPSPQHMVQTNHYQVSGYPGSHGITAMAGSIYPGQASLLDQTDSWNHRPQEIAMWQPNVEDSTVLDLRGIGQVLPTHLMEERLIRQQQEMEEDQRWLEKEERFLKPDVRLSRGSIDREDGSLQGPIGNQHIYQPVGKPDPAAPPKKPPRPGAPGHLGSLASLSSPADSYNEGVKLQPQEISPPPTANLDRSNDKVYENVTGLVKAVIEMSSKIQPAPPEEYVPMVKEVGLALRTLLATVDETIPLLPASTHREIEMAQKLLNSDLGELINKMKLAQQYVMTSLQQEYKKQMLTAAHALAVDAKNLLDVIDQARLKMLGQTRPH
Description: as §1, §2

[14] = biological target: T4, LRRK2(G2019S) (Homo sapiens, UniProt Q5S007, G2019S); assay: as above; format: binding; conditions: lower numbers indicate stronger activities
T4 construct: purchased Ambit Biosciences
T4 sequence (Q5S007 whole entry G2019S): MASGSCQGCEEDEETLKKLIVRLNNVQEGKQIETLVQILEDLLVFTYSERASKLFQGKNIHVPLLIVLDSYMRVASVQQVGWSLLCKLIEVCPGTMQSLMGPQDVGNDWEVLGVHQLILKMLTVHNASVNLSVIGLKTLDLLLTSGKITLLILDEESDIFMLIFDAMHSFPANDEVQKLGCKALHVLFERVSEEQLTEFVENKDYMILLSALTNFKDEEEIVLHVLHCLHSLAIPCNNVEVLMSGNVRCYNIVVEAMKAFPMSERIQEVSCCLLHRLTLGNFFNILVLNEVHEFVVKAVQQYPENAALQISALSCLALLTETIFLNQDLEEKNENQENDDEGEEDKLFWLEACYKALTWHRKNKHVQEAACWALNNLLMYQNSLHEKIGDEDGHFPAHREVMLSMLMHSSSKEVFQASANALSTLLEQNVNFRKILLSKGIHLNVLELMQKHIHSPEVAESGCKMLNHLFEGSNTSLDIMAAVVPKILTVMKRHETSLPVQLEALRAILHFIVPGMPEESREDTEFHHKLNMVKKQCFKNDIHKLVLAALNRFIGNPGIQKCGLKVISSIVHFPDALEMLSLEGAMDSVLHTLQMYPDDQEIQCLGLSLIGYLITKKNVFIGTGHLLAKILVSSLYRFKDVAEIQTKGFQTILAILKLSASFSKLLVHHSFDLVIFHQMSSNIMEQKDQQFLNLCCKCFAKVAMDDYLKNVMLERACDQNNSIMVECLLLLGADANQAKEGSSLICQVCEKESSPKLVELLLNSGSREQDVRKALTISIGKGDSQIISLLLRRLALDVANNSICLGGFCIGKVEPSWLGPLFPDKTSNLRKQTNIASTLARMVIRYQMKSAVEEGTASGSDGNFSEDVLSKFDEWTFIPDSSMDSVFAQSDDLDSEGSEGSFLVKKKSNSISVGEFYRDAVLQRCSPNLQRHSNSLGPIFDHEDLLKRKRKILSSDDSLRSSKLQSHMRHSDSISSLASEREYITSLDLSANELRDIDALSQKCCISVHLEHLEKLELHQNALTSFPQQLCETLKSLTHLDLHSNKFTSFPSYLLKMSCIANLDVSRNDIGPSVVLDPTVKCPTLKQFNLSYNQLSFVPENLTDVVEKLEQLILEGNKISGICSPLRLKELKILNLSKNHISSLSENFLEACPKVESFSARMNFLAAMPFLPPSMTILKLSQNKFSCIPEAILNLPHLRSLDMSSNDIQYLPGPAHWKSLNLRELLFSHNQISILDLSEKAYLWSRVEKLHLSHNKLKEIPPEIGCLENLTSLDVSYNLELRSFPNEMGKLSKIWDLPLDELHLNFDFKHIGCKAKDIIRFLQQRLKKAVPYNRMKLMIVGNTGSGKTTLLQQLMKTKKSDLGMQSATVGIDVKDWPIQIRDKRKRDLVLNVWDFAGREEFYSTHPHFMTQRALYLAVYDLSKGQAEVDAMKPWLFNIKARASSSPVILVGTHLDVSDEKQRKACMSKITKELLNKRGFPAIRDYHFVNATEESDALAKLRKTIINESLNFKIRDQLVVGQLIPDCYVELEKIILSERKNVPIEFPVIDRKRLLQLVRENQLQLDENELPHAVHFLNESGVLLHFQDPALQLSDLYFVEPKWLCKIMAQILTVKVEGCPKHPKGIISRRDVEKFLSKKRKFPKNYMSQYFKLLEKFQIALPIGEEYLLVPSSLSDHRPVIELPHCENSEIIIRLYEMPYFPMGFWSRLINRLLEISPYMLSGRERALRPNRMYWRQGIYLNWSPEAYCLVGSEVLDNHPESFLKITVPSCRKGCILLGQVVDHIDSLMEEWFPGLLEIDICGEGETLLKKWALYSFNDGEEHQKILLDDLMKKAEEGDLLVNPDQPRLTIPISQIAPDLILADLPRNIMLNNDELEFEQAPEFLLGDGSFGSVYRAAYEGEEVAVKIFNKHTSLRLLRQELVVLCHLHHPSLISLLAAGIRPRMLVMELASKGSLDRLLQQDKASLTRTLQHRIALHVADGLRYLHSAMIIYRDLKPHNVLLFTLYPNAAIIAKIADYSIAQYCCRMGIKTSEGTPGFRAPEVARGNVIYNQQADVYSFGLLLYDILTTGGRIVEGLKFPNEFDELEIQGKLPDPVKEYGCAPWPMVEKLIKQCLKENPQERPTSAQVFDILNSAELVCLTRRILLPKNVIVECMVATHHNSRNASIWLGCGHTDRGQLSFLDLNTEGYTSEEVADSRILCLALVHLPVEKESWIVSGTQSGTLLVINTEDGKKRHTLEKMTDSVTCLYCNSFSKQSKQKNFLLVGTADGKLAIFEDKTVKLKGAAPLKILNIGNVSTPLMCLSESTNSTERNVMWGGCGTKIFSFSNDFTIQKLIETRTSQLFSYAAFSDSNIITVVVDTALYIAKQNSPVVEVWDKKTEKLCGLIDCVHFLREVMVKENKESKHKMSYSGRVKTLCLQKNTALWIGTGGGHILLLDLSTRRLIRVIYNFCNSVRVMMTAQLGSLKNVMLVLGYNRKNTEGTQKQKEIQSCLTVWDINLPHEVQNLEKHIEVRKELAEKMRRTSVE
Description: as §1, §2

[15] = biological target: T5, SRPK3 (Homo sapiens, UniProt Q9UPE1); assay: as above; format: binding; conditions: lower numbers indicate stronger activities
T5 construct: purchased Ambit Biosciences
T5 sequence (Q9UPE1 whole entry): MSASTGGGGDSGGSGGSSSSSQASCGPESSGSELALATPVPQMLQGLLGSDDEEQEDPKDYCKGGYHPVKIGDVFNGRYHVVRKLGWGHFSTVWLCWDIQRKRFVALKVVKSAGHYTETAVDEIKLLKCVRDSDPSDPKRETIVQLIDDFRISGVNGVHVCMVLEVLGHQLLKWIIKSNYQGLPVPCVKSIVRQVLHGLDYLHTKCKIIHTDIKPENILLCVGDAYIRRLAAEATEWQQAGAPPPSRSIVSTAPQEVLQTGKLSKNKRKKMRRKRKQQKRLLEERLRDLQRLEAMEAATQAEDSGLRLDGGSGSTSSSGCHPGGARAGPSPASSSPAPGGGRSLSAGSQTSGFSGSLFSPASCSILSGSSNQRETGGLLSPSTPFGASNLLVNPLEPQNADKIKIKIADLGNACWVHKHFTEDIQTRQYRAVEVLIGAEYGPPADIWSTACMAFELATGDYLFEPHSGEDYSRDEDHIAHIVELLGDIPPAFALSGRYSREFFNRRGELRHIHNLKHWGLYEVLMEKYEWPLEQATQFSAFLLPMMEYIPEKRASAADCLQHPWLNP
Description: as §1, §2

[16] = tested on: HCT-15; assay: cells; format: cell-based; conditions: HCT-15 (Colon Cancer)
[17] = tested on: SW-620; assay: cells; format: cell-based; conditions: SW-620 (Colon Cancer)
[18] = tested on: TK-10; assay: cells; format: cell-based; conditions: TK-10 (Renal Cancer)
[19] = tested on: HT29; assay: cells; format: cell-based; conditions: HT29 (Colon Cancer)
[20] = tested on: UO-31; assay: cells; format: cell-based; conditions: UO-31 (Renal Cancer)
[21] = Homo sapiens, read-out: LC50 (the source's name)

## O=c1[nH]ccc2nc(N3CCC(O)CC3)nc(Nc3cccc(C(F)(F)F)c3)c12 [Compound 6, 2-(4-hydroxypiperidin-1-yl)-4-(3-(trifluoromethyl)phenylamino)pyrido[4,3-d]pyrimidine-5(6H)-one]
[1]
  TGI: 12.3 µM
[1]; Homo sapiens
  GI50: 0.871 µM
  IC50: 1.32 µM
[1]; [21]
  CC50: 75.9 µM
[2]; Homo sapiens
  GI50: 3.09 µM
  IC50: 12.9 µM
[2]; [21]
  CC50: 100 µM
[2]
  TGI: 35.5 µM
[3]
  TGI: 38 µM
[3]; Homo sapiens
  GI50: 11.2 µM
  IC50: 25.1 µM
[3]; [21]
  CC50: 100 µM
[4]; Homo sapiens
  GI50: 5.25 µM
  IC50: 13.5 µM
[4]; [21]
  CC50: 100 µM
[4]
  TGI: 38.9 µM
[5]
  TGI: 18.6 µM
[5]; Homo sapiens
  GI50: 4.37 µM
  IC50: 8.91 µM
[5]; [21]
  CC50: 79.4 µM
[6]; Homo sapiens
  GI50: 4.07 µM
  IC50: 12.9 µM
[6]; [21]
  CC50: 100 µM
[6]
  TGI: 100 µM
[7]
  TGI: 6.31 µM
[7]; Homo sapiens
  GI50: 0.282 µM
  IC50: 1.29 µM
[7]; [21]
  CC50: 100 µM
[8]; Homo sapiens
  GI50: 2.95 µM
  IC50: 6.76 µM
[8]; [21]
  CC50: 56.2 µM
[8]
  TGI: 7.76 µM
[9]; Homo sapiens, T47D
  GI50: 3.09 µM
  IC50: 8.51 µM
[9]; Homo sapiens, T47D, read-out: LC50 (the source's name)
  CC50: 100 µM
[9]
  TGI: 26.3 µM
[10]
  TGI: 12 µM
[10]; Homo sapiens
  GI50: 2.88 µM
  IC50: 7.59 µM
[10]; [21]
  CC50: 100 µM
[11]
  % inhibition (reported as percent control): 21%
[12]
  % inhibition (reported as percent control): 2.8%
[13]
  % inhibition (reported as percent control): 34%
[14]
  % inhibition (reported as percent control): 2.2%
[15]
  % inhibition (reported as percent control): 2.6%
[16]
  TGI: 31.6 µM
[16]; Homo sapiens
  GI50: 0.537 µM
  IC50: 0.759 µM
[16]; [21]
  CC50: 100 µM
[17]; Homo sapiens
  GI50: 1.91 µM
  IC50: 2.82 µM
[17]; [21]
  CC50: 74.1 µM
[17]
  TGI: 12.9 µM
[18]; Homo sapiens
  GI50: 6.03 µM
  IC50: 36.3 µM
[18]; [21]
  CC50: 100 µM
[18]
  TGI: 44.7 µM
[19]
  TGI: 95.5 µM
[19]; Homo sapiens, HT-29
  GI50: 3.89 µM
  IC50: 7.08 µM
[19]; Homo sapiens, HT-29, read-out: LC50 (the source's name)
  CC50: 100 µM
[20]; Homo sapiens
  GI50: 0.776 µM
  IC50: 16.2 µM
[20]; [21]
  CC50: 100 µM
[20]
  TGI: 22.9 µM
